Laboratory results taken from patent US12642270B2, “Substituted thiophene carboxamides, thiophene carboxylic acids and derivatives thereof” (Bayer Aktiengesellschaft, priority 2019, dated 2026).

Columns and labels:
[1] = system: Xanthomonas campestris pv. campestris; assay: Example P: Xanthomonas campestris pv. campestris in vitro cell test, formula (II); type: cell-based; settings: 20 ppm of active ingredient, 24 h incubation, read-out: efficacy (inhibition of bacteria growth; no direct activity)
Procedure: • Solvent: DMSO • Culture medium: LB broth medium (Luria Broth Miller) Sigma • Inoculum: bacteria suspension
Compounds were solubilized in DMSO and the solution used to prepare the required range of concentrations. The final concentration of DMSO used in the assay was ≤1%.
Inoculum was prepared from a pre-culture of bacteria grown in liquid medium and diluted to the desired optical density (OD).
Compounds were evaluated for their ability to inhibit bacteria growth in liquid culture assay. The compounds were added in the desired concentrations to culture medium containing the bacteria suspension. After 24 h of incubation, the efficacy of compounds was determined by spectrometric measurement of bacteria growth. Inhibition was determined by comparing the absorbance values in wells containing the compounds with the absorbance in control wells without active ingredients.

[2] = system: Colletotrichum lindemuthianum; assay: Example O: Colletotrichum lindemuthianum in vitro cell test, formula (II); type: cell-based; settings: 144 h, 6 days incubation, read-out: efficacy (inhibition of fungal growth; no direct activity); for inhibition at 10 ppm: 10 ppm of active ingredient; for inhibition at 20 ppm: 20 ppm of active ingredient
Procedure: • Solvent: DMSO • Culture medium: 14.6 g anhydrous D-glucose (VWR), 7.1 g Mycological Peptone (Oxoid), 1.4 g granulated Yeast Extract (Merck), QSP 1 liter • Inoculum: spores suspension Fungicides were solubilized in DMSO and the solution used to prepare the required range of concentrations. The final concentration of DMSO used in the assay was: ≤[…]1%. A spore suspension of C. lindemuthianum was prepared and diluted to the desired spore density. Fungicides were evaluated for their ability to inhibit spores germination and mycelium growth in liquid culture assay. The compounds were added in the desired concentration to the culture medium with spores. After 6 days incubation, fungi-toxicity of compounds was determined by spectrometric measurement of mycelium growth. Inhibition of fungal growth was determined by comparing the absorbance values in wells containing the fungicides with the absorbance in control wells without fungicides.

[3] = Log P by HPLC on reversed phase columns (EEC directive 79/831 Annex V.A8); type: physicochemical; settings: for chromatographic logP: reversed phase HPLC columns
Outline: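 Values come from retention times calibrated against alkan-2-ones (3–16 carbons) by linear interpolation, using reversed-phase LC-UV per EEC directive 79/831 Annex V.A8. Acetonitrile gradient 10–95% with 0.1% formic acid [a], 0.001 M ammonium acetate [b] or 0.1% phosphoric acid [c]; several values within one method separated by "+".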

[4] = system: salicylate responsive promoter sequence of the PR1 (pathogenesis-related protein I) gene (AT2G14610); assay: Example A: induction of defense gene expression in Arabidopsis thaliana (PR1 promoter-GFP reporter plants), formula (I); type: in vivo; settings: 300 ppm, 3rd day after spraying, mock treated leaves = 1.00
Procedure: (§1) Arabidopsis thaliana reporter plants containing the coding sequence of a green fluorescent protein (GFP) linked to the salicylate responsive promoter sequence of the PR1 (pathogenesis-related protein I) gene (AT2G14610) were grown for five days and then sprayed with compounds. On the 3rd day after spraying, plant fluorescence was assessed with a MacroFluo instrument from Leica Microsystems (Wetzlar, Germany). Fluorescences were quantified with the Meta-Morph Microscopy Automation & Image Analysis Software (Molecular Devices, Sunnyvale, Calif., United States).
(§2) Background fluorescence in mock treated leaves was set as 1.00.

[5] = system: salicylate responsive promoter sequence of the PR1 (pathogenesis-related protein I) gene (AT2G14610); assay: Example K: induction of defense gene expression in Arabidopsis thaliana (PR1 promoter-GFP reporter plants), formula (II); type: in vivo; settings: 300 ppm, 3rd day after spraying, mock treated leaves = 1.00
Procedure: as §1, §2

[6] = method [a]: LC-UV, acidic range, 0.1% formic acid in water and acetonitrile
[7] = value in preparation example, method not marked

| SMILES | LogP [3, 6] | further results |
| --- | --- | --- |
| COC(=O)c1sc(Cl)c(C#N)c1C [II.028, methyl 5-chloro-4-cyano-3-methylthiophene-2-carboxylate] |  | inhibition at 20 ppm [1]: ≤ 30%; inhibition at 10 ppm [2]: ≤ 30%; inhibition at 20 ppm [2]: ≤ 30%; chromatographic logP [3, 6]: 2.98; chromatographic logP [3, 7]: 3.01 |
| O=C(O)c1cc(F)c(Cl)s1 [II.037] | 1.89^[a] |  |
| Cc1cc(C(=O)O)sc1Cl [II.038] | 2.16^[a] |  |
| O=C(O)c1cc(F)c(Br)s1 [II.039] | 1.02^[a] |  |
| O=C(O)c1cc(Cl)c(Br)s1 [II.040] | 2.23^[a] |  |
| N#Cc1cc(C(=O)O)sc1Cl [II.041] | 1.44^[a] |  |
| Cc1c(C(=O)O)sc(C#N)c1Br [II.042, 4-bromo-5-cyano-3-methylthiophene-2-carboxylic acid] |  | inhibition at 20 ppm [1]: ≤ 30%; inhibition at 10 ppm [2]: ≤ 30%; inhibition at 20 ppm [2]: ≤ 30%; chromatographic logP [3, 6]: 2.01 |
| O=C(O)c1cc(Br)c(Cl)s1 [II.043] | 2.28^[a] |  |
| N#Cc1c(Br)sc(C(=O)O)c1Br [II.044] | 1.73^[a] |  |
| COC(=O)c1cc(C#N)c(Cl)s1 [II.045] | 2.44^[a] |  |
| COC(=O)c1cc(Cl)c(C#N)s1 [II.046, methyl 4-chloro-5-cyanothiophene-2-carboxylate] |  | inhibition at 20 ppm [1]: ≤ 30%; inhibition at 10 ppm [2]: ≤ 30%; inhibition at 20 ppm [2]: ≤ 30%; chromatographic logP [3, 6]: 2.52; chromatographic logP [3, 7]: 2.52 |
| COC(=O)c1cc(Cl)c(Br)s1 [II.047] | 3.29^[a] |  |
| CCOC(=O)c1cc(Br)c(Cl)s1 [II.048] | 4.21^[a] |  |
| COC(=O)c1cc(F)c(Br)s1 [II.049] | 3.04^[a] |  |
| CC(C)COC(=O)c1cc(Cl)c(Br)s1 [II.050] | 5.28^[a] |  |
| COC(=O)c1sc(C#N)c(Br)c1C [II.051] | 3.19^[a] |  |
| COC(=O)c1cc(Br)c(C#N)s1 [II.052] | 2.63^[a] |  |
| CCOC(=O)c1sc(Cl)c(Cl)c1C#N [II.053, ethyl 4,5-dichloro-3-cyanothiophene-2-carboxylate] |  | chromatographic logP [3, 6]: 3.54; chromatographic logP [3, 7]: 3.54 |
| COC(=O)c1sc(C#N)c(Br)c1Br [II.054] | 3.07^[a] |  |
| COC(=O)c1sc(Br)c(Br)c1C(F)F [II.055, methyl 4,5-dibromo-3-(difluoromethyl)thiophene-2-carboxylate] |  | chromatographic logP [3, 6]: 3.81; chromatographic logP [3, 7]: 3.81 |
| CCOC(=O)c1sc(I)c(Cl)c1Cl [II.056] | 4.57^[a] |  |
| O=C(O)c1sc(I)c(Cl)c1Cl [II.057] | 3.01^[a] |  |
| COC(=O)c1sc(C)c(Cl)c1Cl [II.058] | 3.49^[a] |  |
| COC(=O)c1sc(F)c(Br)c1Cl [II.059] | 3.44^[a] |  |

| SMILES | LogP [3, 6] | further results |
| --- | --- | --- |
| CC(C)COC(=O)c1sc(Cl)c(Br)c1F [II.060] | 5.28^[a] |  |
| N#Cc1sc(C(=O)O)c(Br)c1Br [II.061] | 1.66^[a] |  |
| CCOC(=O)c1cc(Cl)c(F)s1 [II.062] | 3.63^[a] |  |
| CCOC(=O)c1sc(C)c(Cl)c1Cl [II.063] | 4.03^[a] |  |
| O=C(O)c1cc(Cl)c(F)s1 [II.064] | 2.16^[a] |  |
| Cc1sc(C(=O)O)c(Cl)c1Cl [II.065] | 2.49^[a] |  |
| CCOC(=O)c1sc(F)c(Br)c1Cl [II.066] | 4.02^[a] |  |
| CCOC(=O)c1sc(Cl)c(Br)c1F [II.067] | 4.08^[a] |  |
| CCOC(=O)c1sc(C#N)c(Cl)c1Cl [II.068] | 3.50^[a] |  |
| COC(=O)c1sc(Br)c(Br)c1C#N [II.069] | 3.26^[a] |  |
| O=C(O)c1sc(Br)c(Cl)c1Br [II.070] | 2.41^[a] |  |
| COC(=O)c1sc(Br)c(Cl)c1Br [II.071] | 4.01^[a] |  |
| CCOC(=O)c1cc(Cl)c(C#N)s1 [II.072] | 3.10^[a] |  |
| CCOC(=O)c1sc(Cl)c(C)c1Cl [II.073] | 4.59^[a] |  |
| Cc1c(Cl)sc(C(=O)O)c1Cl [II.074] | 2.76^[a] |  |
| COC(=O)c1sc(Br)c(C(F)F)c1Br [II.075] | 3.54^[a] |  |
| O=C(O)c1sc(F)c(Br)c1Cl [II.076] | 2.19^[a] |  |
| COC(=O)c1sc(Cl)c(Br)c1C#N [II.077] | 2.99^[a] |  |
| O=C(O)c1sc(Br)c(C(F)F)c1Br [II.078] | 2.26^[a] |  |
| COC(=O)c1sc(C#N)c(Cl)c1Cl [II.079] | 2.99^[a] |  |
| COC(=O)c1sc(C#N)c(Br)c1Cl [II.080] | 3.02^[a] |  |
| O=C(O)c1cc(Br)c(C(F)(F)F)s1 [II.081] | 2.46^[a] |  |
| CCOC(=O)c1cc(Br)c(C(F)(F)F)s1 [II.082] | 4.40^[a] |  |
| N#Cc1c(C(=O)O)sc(Cl)c1Br [II.083] | 1.70^[a] |  |

| SMILES | LogP [3, 6] | further results |
| --- | --- | --- |
| COC(=O)c1sc(C)c(Br)c1F [II.084] | 3.15^[a] |  |
| COC(=O)c1sc(Cl)c(Cl)c1C#N [II.085, methyl 4,5-dichloro-3-cyanothiophene-2-carboxylate] |  | inhibition at 20 ppm [1]: ≤ 30%; inhibition at 10 ppm [2]: ≤ 30%; inhibition at 20 ppm [2]: ≤ 30%; chromatographic logP [3, 6]: 2.98; chromatographic logP [3, 7]: 2.98 |
| COC(=O)c1sc(F)c(Br)c1Br [II.086] | 3.56^[a] |  |
| N#Cc1sc(C(=O)O)c(Cl)c1Br [II.087] | 1.55^[a] |  |
| N#Cc1sc(C(=O)O)c(Cl)c1Cl [II.088] | 1.51^[a] |  |
| CCOC(=O)c1sc(Cl)c(Br)c1Cl [II.089] | 4.62^[a] |  |
| CCOC(=O)c1cc(C#N)c(Cl)s1 [II.090] | 3.01^[a] |  |
| CCOC(=O)c1sc(Br)c(C#N)c1Cl [II.091] | 3.44^[a] |  |
| CCOC(=O)c1sc(C#N)c(Cl)c1Br [II.092] | 3.56^[a] |  |
| CCOC(=O)c1sc(Cl)c(C#N)c1Br [II.093] | 3.46^[a] |  |
| O=C(O)c1sc(F)c(Br)c1Br [II.094] | 2.26^[a] |  |
| COC(=O)c1sc(Cl)c(C#N)c1Br [II.095] | 2.92^[a] |  |
| COC(=O)c1sc(C#N)c(Cl)c1Br [II.096] | 3.04^[a] |  |
| N#Cc1sc(C(=O)O)c(Br)c1Cl [II.097] | 1.64^[a] |  |
| N#Cc1c(Cl)sc(C(=O)O)c1Br [II.098] | 1.68^[a] |  |
| O=C(O)c1sc(C(F)F)c(Br)c1Br [II.099] | 2.51^[a] |  |
| N#Cc1cc(C(=O)O)sc1Br [II.100] | 1.48^[a] |  |
| Cc1c(C(=O)O)sc(F)c1Cl [II.101] | 2.45^[a] |  |
| Cc1c(C(=O)O)sc(F)c1Br [II.102] | 2.53^[a] |  |
| N#Cc1c(C(=O)O)sc(Cl)c1Cl [II.103, 4,5-dichloro-3-cyanothiophene-2-carboxylic acid] |  | chromatographic logP [3, 6]: 1.61; chromatographic logP [3, 7]: 1.61 |
| N#Cc1c(C(=O)O)sc(Br)c1Br [II.104] | 1.71^[a] |  |
| O=C(O)c1ccccc1O [Salicylic acid] |  | relative fluorescence value [4]: 2.70; relative fluorescence value [5]: 2.70 |
